Assay results reported in ChEMBL document CHEMBL1201862, “PubChem BioAssay data set” (2004).
Activity calls are given as the source filed them.

Assays:
[1] = molecular target: T1, Caspase-3 (Homo sapiens, UniProt P42574); assay: caspase-3 inhibitors as off-family protease, SAR follow-up, selectivity assay for SENP protease inhibitor project, biochemical, luminescence, set 2 (AID 588599); type: functional
T1 sequence (P42574 whole entry): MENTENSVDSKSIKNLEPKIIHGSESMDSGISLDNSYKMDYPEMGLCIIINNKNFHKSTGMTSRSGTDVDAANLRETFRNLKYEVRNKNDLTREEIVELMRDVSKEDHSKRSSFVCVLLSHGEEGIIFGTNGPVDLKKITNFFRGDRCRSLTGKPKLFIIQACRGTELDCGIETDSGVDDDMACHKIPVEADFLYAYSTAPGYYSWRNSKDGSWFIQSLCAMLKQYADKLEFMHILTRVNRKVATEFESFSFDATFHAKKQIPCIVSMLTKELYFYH

[2] = molecular target: T1, Caspase-3; assay: SAR Analysis of small molecule inhibitors of Sentrin-specific proteases (SENPs) using a Caspase-3 Selectivity assay. [Related pubchem assays (depositor defined):AID2540, AID2599, AID434973, AID489001]; type: functional
[3] = molecular target: T2, Sentrin-specific protease 7 (Homo sapiens, UniProt Q9BQF6); assay: SENP7 protease inhibitors, SAR follow-up, biochemical, luminescence, set 2 (AID 588600); type: functional
T2 sequence (Q9BQF6 whole entry): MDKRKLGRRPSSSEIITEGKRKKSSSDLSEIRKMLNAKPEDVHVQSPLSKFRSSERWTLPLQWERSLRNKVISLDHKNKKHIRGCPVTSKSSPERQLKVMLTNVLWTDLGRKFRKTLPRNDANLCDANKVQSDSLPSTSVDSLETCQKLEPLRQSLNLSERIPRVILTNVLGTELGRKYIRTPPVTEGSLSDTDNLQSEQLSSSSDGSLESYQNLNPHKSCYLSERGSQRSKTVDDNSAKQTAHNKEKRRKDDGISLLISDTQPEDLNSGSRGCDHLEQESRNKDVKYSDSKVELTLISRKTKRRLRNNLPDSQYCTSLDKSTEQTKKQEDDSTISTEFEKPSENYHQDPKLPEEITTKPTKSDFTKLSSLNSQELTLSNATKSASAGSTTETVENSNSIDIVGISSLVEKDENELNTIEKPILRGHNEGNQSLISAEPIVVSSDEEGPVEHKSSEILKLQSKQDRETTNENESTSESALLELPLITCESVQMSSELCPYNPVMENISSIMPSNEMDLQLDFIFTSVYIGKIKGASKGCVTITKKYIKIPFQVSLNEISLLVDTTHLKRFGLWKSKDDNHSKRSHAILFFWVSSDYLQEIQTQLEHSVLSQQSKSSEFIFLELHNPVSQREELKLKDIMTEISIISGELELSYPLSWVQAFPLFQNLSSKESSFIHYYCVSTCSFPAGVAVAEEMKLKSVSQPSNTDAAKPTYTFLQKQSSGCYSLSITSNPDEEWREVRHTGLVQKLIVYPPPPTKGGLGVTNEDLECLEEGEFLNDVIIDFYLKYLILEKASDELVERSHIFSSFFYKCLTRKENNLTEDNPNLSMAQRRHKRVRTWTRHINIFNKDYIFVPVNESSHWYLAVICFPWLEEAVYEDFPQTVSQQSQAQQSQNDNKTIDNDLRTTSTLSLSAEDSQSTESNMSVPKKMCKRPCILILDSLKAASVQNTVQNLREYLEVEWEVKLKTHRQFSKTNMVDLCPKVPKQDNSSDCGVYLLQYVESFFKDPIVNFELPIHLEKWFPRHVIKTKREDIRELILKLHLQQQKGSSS

[4] = molecular target: T3, Sentrin-specific protease 6 (Homo sapiens, UniProt Q9GZR1); assay: SAR Analysis of small molecule inhibitors of Sentrin-specific protease 6 (SENP6) using a Luminescent assay. [Related pubchem assays (depositor defined):AID2582, AID2599]; type: functional
T3 sequence (Q9GZR1 whole entry): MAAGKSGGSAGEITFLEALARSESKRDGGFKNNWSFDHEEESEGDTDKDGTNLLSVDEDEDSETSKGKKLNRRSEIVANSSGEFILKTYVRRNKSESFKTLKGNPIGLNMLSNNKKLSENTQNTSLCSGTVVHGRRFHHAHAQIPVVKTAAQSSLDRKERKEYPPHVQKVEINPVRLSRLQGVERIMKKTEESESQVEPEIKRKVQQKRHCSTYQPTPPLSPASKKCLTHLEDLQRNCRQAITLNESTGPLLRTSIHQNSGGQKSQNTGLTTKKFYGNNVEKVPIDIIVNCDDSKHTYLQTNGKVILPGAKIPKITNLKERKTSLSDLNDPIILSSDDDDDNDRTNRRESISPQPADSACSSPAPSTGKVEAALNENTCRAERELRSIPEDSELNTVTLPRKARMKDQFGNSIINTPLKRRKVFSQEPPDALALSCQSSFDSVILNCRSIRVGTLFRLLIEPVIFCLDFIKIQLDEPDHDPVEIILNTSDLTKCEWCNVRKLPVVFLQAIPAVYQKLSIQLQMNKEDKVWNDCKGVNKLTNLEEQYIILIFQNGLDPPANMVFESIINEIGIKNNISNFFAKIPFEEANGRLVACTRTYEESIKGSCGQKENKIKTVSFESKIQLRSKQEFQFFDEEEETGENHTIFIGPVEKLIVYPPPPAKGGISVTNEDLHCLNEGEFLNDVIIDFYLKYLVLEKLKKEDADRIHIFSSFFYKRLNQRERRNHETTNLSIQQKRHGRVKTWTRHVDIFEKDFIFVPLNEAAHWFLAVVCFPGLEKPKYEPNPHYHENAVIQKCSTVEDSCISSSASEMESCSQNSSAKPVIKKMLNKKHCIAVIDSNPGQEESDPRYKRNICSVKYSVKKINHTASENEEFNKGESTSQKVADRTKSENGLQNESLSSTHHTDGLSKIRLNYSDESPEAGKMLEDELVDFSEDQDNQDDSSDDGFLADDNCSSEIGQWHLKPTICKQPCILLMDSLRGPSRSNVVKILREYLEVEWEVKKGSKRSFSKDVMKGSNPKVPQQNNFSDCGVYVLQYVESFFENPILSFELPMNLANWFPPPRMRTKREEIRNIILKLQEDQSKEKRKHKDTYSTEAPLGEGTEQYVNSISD

[5] = molecular target: T2, Sentrin-specific protease 7; assay: SENP7 protease inhibitors, SAR follow-up, biochemical, luminescence (AID 504497); type: functional
[6] = molecular target: T3, Sentrin-specific protease 6; assay: SENP6 protease inhibitors, SAR follow-up, biochemical, luminescence, set 2 (AID 588598); type: functional
[7] = molecular target: T4, Sentrin-specific protease 8 (Homo sapiens, UniProt Q96LD8); assay: SENP8 protease inhibitors, SAR follow-up, biochemical, luminescence, set 2 (AID 588601); type: functional
T4 sequence (Q96LD8 whole entry): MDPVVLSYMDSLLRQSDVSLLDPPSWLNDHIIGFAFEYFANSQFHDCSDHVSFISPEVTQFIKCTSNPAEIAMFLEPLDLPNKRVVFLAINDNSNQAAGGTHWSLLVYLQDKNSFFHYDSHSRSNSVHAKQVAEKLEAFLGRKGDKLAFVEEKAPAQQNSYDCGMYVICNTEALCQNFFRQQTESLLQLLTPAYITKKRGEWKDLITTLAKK

[8] = molecular target: T4, Sentrin-specific protease 8; assay: SENP8 protease inhibitors, SAR follow-up, biochemical, luminescence (AID 504501); type: functional
[9] = molecular target: T5, Hexokinase HKDC1 (Homo sapiens, UniProt Q2TB90); assay: SAR analysis of small molecule inhibitors of hexokinase domain containing I (HKDC1) - Set 3. [Related pubchem assays (depositor defined):AID493160, AID493190]; type: functional
T5 sequence (Q2TB90 whole entry): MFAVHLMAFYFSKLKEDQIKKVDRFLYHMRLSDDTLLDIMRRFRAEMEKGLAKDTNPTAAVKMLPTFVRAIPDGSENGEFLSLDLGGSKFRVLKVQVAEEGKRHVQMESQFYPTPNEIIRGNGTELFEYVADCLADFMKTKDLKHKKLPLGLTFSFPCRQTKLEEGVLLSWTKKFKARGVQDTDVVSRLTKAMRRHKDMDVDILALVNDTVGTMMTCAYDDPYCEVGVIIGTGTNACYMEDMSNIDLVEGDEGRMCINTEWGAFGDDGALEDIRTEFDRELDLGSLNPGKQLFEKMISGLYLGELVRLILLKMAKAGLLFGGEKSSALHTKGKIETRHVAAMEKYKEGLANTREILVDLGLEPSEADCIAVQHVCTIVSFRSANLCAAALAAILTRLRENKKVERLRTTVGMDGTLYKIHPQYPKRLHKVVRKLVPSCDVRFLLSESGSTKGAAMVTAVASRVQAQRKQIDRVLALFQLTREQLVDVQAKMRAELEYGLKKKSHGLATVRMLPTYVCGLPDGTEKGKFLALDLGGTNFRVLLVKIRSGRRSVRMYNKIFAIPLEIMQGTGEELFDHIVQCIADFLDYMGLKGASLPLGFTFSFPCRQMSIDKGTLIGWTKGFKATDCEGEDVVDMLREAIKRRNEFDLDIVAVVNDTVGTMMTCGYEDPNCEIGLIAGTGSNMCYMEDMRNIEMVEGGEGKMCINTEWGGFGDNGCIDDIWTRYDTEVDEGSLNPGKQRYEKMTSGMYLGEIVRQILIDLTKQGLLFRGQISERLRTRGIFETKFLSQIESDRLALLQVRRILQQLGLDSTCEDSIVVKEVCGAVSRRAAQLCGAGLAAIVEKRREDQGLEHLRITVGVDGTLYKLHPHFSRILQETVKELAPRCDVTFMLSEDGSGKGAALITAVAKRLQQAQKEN

[10] = molecular target: Hexokinase-1 (Homo sapiens, UniProt P19367); assay: HK1 enzyme inhibition by HKDC1 hits, SAR follow-up, selectivity assay for HKDC1 inhibitor project, biochemical, set 2, resazurin fluorescence coupled readout (AID 588356); type: functional
[11] = molecular target: T5, Hexokinase HKDC1; assay: HKDC1 hexokinase inhibitors, SAR follow-up, biochemical, set 2 (AID 588355); type: functional
[12] = molecular target: T6, Acyl-homoserine lactone acylase PvdQ (Pseudomonas aeruginosa (strain LESB58), UniProt Q9I194); assay: P. aeruginosa PvdQ acylase inhibitors, dose response, biochemical, fluorescence, plate reader and imaging, cherry-picks (AID 493231)
T6 sequence (Q9I194 whole entry): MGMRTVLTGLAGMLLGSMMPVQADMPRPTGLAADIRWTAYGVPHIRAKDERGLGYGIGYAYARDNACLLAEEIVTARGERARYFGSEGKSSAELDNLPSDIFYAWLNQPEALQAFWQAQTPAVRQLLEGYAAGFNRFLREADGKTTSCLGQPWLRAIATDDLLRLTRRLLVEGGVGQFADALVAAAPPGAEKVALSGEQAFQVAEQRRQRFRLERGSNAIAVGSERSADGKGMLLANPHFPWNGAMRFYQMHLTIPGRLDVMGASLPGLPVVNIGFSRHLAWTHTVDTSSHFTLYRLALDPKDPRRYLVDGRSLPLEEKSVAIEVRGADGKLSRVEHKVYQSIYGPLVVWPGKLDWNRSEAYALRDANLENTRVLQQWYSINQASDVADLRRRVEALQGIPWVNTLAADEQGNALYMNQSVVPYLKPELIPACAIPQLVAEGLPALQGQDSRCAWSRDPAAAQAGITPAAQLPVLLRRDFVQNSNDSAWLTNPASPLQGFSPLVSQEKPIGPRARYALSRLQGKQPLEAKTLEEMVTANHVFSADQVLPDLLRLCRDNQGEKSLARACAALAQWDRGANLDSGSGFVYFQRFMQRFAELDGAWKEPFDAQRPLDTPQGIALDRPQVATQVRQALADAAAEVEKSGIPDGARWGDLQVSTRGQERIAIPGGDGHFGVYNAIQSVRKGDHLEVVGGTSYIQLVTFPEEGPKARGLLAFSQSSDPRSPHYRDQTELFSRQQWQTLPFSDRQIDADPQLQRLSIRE

[13] = test system: HeLa; assay: HeLa cell cytotoxicity, dose response, cytotoxicity control, 48 h, plate reader, cherry-picks (AID 504942); type: functional, cell-based; conditions: Homo sapiens
[14] = molecular target: Neurotensin receptor type 1 (Homo sapiens, UniProt P30989); type: functional;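 further: Image-based confirmatory dose-response assay measuring agonist activity at NTR1; NTR1-expressing U2OS osteosarcoma cells imaged for beta-arrestin GFP spot formation; agonist potency where compounds increase beta-arrestin recruitment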
[15] = molecular target: T7, Hepatocyte nuclear factor 4-alpha (Homo sapiens, UniProt P41235); type: functional, cell-based;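 further: biochemical luminescence-based dose-response counterscreen measuring inhibition of HNF4 dimerization, run alongside a screen for blockers of ABHD5–perilipin-5 interaction; split luciferase complementation of HNF4 fusion proteins in cell lysate measuring dimerization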
T7 sequence (P41235 whole entry): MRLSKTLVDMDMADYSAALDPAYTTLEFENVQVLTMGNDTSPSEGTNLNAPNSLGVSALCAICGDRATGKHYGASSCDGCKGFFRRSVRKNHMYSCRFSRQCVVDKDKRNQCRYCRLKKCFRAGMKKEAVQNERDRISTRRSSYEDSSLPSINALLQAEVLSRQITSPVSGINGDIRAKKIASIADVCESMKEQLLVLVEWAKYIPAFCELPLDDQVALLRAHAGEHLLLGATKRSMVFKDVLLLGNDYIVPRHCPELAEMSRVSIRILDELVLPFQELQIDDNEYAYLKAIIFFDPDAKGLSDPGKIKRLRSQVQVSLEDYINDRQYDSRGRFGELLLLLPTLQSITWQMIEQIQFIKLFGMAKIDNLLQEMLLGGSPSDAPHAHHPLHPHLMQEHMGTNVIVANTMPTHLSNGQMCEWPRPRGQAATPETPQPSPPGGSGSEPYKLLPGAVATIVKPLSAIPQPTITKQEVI

[16] = molecular target: G-protein coupled receptor 55 (Homo sapiens, UniProt Q9Y2T6); assay: GPR55 agonists via beta-arrestin recruitment, primary screen, imaging, U2OS cells, beta-arrestin-GFP redistribution (AID 1961); type: functional
[17] = molecular target: Latent membrane protein 1 (Human herpesvirus 4 (strain B95-8), UniProt P03230); assay: TES1-eGFP NF-kB reporter inhibition versus Tet-On dsRED, dose response, selectivity assay for LMP1 NF-kB inhibitor project, imaging, HEK293T, dual-color eGFP/dsRED, cherry-picks (AID 588398); type: functional, cell-based
[18] = molecular target: DNA topoisomerase (Yersinia pestis, UniProt A0A2S9PM60); assay: Y. pestis Topo-I inhibitors, cleavage product readout, dose response, biochemical, cherry-pick (AID 588525)
Sequence of DNA topoisomerase (A0A2S9PM60 whole entry): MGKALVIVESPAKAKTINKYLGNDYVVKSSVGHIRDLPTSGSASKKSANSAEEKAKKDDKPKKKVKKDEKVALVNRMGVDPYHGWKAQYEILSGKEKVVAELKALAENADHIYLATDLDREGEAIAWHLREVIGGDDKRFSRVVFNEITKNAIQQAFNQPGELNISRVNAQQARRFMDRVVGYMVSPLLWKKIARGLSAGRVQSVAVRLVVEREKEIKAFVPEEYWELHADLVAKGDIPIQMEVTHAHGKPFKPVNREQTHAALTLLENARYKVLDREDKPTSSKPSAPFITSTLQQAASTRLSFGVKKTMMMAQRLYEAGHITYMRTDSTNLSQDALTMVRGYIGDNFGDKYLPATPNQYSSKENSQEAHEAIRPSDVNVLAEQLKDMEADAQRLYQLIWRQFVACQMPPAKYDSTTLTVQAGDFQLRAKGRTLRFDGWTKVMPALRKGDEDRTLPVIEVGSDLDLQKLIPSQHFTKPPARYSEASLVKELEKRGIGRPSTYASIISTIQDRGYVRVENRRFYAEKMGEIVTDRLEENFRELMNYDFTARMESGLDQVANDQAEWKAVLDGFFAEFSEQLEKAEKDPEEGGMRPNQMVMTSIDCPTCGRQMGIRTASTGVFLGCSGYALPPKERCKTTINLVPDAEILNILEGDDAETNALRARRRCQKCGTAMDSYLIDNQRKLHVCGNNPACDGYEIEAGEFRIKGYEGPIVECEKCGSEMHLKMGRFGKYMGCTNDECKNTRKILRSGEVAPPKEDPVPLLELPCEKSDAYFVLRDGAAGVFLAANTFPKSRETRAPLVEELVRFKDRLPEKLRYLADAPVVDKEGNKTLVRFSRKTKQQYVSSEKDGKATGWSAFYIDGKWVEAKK

Sequence of Neurotensin receptor type 1 (P30989 whole entry, the tested form may be a part): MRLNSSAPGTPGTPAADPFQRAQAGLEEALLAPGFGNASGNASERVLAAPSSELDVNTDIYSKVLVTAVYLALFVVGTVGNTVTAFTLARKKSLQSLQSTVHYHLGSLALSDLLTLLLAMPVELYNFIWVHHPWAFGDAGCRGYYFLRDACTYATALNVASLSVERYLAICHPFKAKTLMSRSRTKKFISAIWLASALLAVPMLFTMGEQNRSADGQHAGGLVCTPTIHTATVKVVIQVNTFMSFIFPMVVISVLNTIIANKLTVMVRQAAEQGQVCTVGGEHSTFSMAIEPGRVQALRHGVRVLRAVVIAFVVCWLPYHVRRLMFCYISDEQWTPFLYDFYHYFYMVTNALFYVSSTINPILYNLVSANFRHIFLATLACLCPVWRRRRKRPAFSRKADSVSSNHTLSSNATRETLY
Sequence of Latent membrane protein 1 (P03230 whole entry): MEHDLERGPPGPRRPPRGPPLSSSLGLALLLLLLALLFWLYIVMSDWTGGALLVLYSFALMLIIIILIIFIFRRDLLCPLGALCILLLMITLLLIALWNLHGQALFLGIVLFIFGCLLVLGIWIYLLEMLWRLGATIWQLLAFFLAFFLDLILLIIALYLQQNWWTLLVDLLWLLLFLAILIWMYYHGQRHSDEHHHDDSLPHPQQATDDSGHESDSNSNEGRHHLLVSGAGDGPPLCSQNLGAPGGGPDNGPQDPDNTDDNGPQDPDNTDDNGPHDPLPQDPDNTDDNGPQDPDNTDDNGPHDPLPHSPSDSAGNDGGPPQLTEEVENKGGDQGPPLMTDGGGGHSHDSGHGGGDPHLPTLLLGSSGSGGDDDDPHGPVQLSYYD
Sequence of Hexokinase-1 (P19367 whole entry): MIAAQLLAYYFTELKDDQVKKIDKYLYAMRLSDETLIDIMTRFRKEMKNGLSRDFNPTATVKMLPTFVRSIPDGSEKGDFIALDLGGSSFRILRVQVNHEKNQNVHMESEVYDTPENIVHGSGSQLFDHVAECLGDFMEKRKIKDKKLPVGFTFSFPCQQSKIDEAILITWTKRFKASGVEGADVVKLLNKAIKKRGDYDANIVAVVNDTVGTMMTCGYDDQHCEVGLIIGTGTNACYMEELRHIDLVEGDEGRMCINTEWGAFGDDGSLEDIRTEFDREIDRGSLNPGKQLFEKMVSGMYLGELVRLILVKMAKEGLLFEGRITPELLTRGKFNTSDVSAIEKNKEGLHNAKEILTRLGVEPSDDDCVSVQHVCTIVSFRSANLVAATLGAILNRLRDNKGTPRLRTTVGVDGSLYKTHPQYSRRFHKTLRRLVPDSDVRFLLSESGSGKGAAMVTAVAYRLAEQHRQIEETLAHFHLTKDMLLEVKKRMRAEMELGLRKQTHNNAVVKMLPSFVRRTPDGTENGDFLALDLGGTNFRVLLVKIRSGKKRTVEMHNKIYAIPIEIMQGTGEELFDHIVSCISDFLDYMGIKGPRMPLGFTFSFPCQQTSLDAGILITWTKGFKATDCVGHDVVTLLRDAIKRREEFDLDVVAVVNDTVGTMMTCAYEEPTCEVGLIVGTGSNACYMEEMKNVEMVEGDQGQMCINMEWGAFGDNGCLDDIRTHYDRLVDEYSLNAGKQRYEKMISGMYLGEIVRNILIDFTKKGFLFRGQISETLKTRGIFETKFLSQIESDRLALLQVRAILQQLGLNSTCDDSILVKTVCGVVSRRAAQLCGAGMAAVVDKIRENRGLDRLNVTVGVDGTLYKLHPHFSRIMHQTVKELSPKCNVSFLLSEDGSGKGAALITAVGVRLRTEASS
Sequence of G-protein coupled receptor 55 (Q9Y2T6 whole entry): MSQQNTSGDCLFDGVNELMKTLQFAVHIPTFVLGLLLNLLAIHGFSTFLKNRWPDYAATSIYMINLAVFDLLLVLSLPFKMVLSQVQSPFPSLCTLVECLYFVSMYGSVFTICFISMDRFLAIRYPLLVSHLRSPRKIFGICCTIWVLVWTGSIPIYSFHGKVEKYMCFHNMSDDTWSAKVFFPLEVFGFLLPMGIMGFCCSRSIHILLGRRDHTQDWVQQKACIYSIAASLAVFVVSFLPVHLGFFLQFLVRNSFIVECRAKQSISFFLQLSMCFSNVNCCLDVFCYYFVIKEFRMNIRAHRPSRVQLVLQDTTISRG

O=C(Nc1nc2ccc(Cl)cc2s1)c1nccs1
IC50 [1]: 1.98 µM (active)
IC50 [2]: 2.4 µM (active)
IC50 [3]: 2.9 µM (active)
IC50 [4]: 3.2 µM (active)
IC50 [5]: 2.5 µM (active)
IC50 [6]: 2.89 µM (active)
IC50 [7]: 2.38 µM (active)
IC50 [8]: 3.5 µM (active)

CC(=O)NC1C(=O)N(CCN2CCOCC2)c2ccc(Br)cc21 (stereo not drawn)
IC50 [9]: > 80 µM (inactive)
IC50 [10]: > 80 µM (inactive)
IC50 [11]: > 80 µM (inactive)

O=CC1=C(c2ccccc2)Oc2ccccc2O1
AC50 [12]: 2.14 µM (active)
AC50 [13]: 23.9 µM (active)
EC50 [14]: 16 µM (active)
IC50 [15]: 10.4 µM (inactive)
EC50 [16]: 2.28 µM (active)

O=C1N[C@@H](Cc2c[nH]c3ccccc23)COC(=O)[C@H](Cc2ccc(F)cc2)C/C=C\C[C@H]1CC(=O)N(CCO)Cc1ccccc1
AC50 [17]: 30.1 µM (active)

CC(C)(C)c1ccc(OCCn2nc(C(=O)O)c3ccccc3c2=O)cc1
AC50 [18]: 9.12 µM (active)
